Data on two compounds can be found in US20110166196A1, “TREATMENT AND PROPHYLAXIS OF EPILEPSY AND FEBRILE SEIZURES” (priority 2008, published 2011).

For experiment [1], the target named is T1, TRPV1 channels (Mus musculus, UniProt Q704Y3).
T1 construct: whole-cell recordings from acutely prepared brain slices from wild type C57BL/6 mice; from tissue; host or cells: acute coronal hippocampal slices from P14-P20 wild-type C57BL/6 mice: CA1 pyramidal neurons
In words: Heat-ramp evoked inward current and depolarization in CA1 pyramidal neurons of wild-type mice. Format: cell-based.

For experiment [2], the system named is excitatory synapses on interneurons. In words: Drug-induced depression of EPSC amplitudes in slices from TRPV1-/- and C57BL/6 wild-type mice. Format: cell-based, mouse. The conditions noted are these: capsaicin 1 μM. From the text: The basic methods have been detailed previously (McMahon and Kauer, 1997). Sprague-Dawley rats (15-22 days old) were used in the majority of experiments. In addition, we used TRPV1^−/− mice (Caterina et al., 2000) and wild-type C57BL/6 mice aged between 15 and 21 days (Jackson Laboratory). The TRPV1^−/− mice we used have been backcrossed at least 10 times onto a C57BL/6 background and were obtained from homozygous breeding pairs. Control mice were therefore not littermates but were age-matched, wild-type C57BL/6 animals received from the same supplier in the same shipment. All animal protocols were approved by the Brown University Institutional Animal Care and Use Committee. For mouse experiments, only one brain slice per mouse was used for each experiment, so that reported ‘n’ numbers represent the number of animals. Animals were anaesthetized using halothane or isoflurane and quickly decapitated. […]
Slices were continuously perfused with ACSF warmed to 28-32° C. at a flow rate of 1-2 ml/min. […] EPSCs were stimulated at 0.1 Hz (100 μsec) using a bipolar stainless steel stimulating electrode placed in stratum radiatum at least 200 μm from the recorded cell. […] In early experiments, we measured rectification ratios of EPSCs evoked at +40 mV/−60 mV in the presence of 50 μM D-AP5, measured at the time of peak inward synaptic current seen at −70 mV (Lei and McBain, 2004).
The maximal initial slope of fEPSPs was calculated using a LabVIEW-based program (National Instruments). The peak amplitude of each EPSC was measured by comparing a 10 msec time period immediately prior to the stimulus with the peak of the EPSC using this program as well. Occasionally polysynaptic responses were evoked, and in these cases, only the initial monosynaptic event was measured. To positively identify LTD, EPSCs measured every 10 seconds were averaged in 1 minute intervals. […]

T1 sequence (Q704Y3 whole entry): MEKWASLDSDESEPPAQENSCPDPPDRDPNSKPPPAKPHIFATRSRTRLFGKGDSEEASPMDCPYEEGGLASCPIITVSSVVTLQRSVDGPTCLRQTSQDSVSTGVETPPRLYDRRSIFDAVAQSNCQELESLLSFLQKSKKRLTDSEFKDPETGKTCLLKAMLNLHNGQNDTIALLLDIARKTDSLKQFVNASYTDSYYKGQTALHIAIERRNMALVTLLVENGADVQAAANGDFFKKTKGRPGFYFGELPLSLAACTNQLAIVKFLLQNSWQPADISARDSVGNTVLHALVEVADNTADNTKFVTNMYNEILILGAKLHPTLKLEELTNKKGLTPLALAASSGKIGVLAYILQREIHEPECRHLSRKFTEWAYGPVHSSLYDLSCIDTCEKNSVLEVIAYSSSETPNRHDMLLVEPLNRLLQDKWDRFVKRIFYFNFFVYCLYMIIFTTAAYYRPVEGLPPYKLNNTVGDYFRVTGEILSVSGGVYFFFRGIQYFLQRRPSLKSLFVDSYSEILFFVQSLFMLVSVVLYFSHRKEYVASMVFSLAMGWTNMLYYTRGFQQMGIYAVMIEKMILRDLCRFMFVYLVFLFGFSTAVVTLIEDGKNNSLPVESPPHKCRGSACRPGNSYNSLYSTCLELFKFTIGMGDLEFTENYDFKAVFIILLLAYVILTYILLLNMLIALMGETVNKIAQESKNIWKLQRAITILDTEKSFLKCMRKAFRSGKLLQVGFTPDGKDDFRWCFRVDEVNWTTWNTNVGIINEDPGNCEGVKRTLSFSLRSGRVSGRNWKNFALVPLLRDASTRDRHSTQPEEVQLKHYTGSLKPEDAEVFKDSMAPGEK

As to `Oc1cc2c(cc1O)CN(C(=S)NCCc1ccc(Cl)cc1)CCC2` [capsazepine], the “heat-induced change of membrane potential in CA1 neurons” value in experiment [1] (2 μM intracellular capsazepine, current clamp, ramp 30 to 42° C., absence 19.7±4.5 mV, n=6) came out at 1.0±0.7 mV. Moreover, the “effect on heat-evoked current in CA1 pyramidal neuron” value in experiment [1] (bath-applied capsazepine 10 μM, voltage clamp, heat ramp) is given as “blocked”.
With `COc1cc(CNC(=O)CCCCC=CC(C)C)ccc1O` [capsaicin, 8-methyl-N-vanillyl-6-nonenamide], the “EPSC amplitudes after 10-15 minutes in capsaicin in C57BL/6 wild-type mice” value in experiment [2] (C57BL/6 wild-type mice, n=6) is 50.5±12.1 % of pre-drug control values. Further, the “EPSC amplitudes after 10-15 minutes in capsaicin in TRPV1−/− mice” value in experiment [2] (TRPV1−/− mice, n=8) is on record as 100.7±6.6 % of pre-drug control values.
